According to ChEMBL document CHEMBL1201862, “PubChem BioAssay data set” (2004):
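Cells were grown in 96-well plates and exposed to each compound for 48 hours at five concentrations; endpoints were interpolated linearly between bracketing concentrations, or set to the highest concentration if not reached. Abbreviation: GI50, concentration required for 50% inhibition of growth.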 Activity calls are given as the source filed them. Cut-off read from the data, not from the text of the source: active = GI50 up to about 1.1 µM and inactive = higher.

Experiments:
Test in all cases: growth of human tumour cells (NCI), 48 h
SNB-19 = system: SNB-19
HT-29 = system: HT-29
NCI-H226 = system: NCI-H226
SR = system: SR
HOP-62 = system: HOP-62
HCT-116 = system: HCT-116
NCI-H23 = system: NCI-H23
EKVX = system: EKVX
OVCAR-4 = system: OVCAR-4
Malme-3M = system: Malme-3M
HOP-92 = system: HOP-92
NCI-H460 = system: NCI-H460
CCRF-CEM = system: CCRF-CEM
UACC-62 = system: UACC-62
OVCAR-5 = system: OVCAR-5
OVCAR-8 = system: OVCAR-8
SF-295 = system: SF-295
DU-145 = system: DU-145
SK-MEL-28 = system: SK-MEL-28

Measured: GI50

COc1ccc(C2C3COc4ccccc4C3=NN2c2ccccc2)cc1 (stereo not drawn)
inactive: SNB-19 > 100 µM | HT-29 87.1 µM | NCI-H226 > 100 µM | SR 31.6 µM | HOP-62 > 100 µM | HCT-116 > 100 µM | NCI-H23 > 100 µM | EKVX > 100 µM | OVCAR-4 > 100 µM | Malme-3M > 100 µM | HOP-92 > 100 µM | NCI-H460 94.4 µM | CCRF-CEM > 100 µM | UACC-62 > 100 µM | OVCAR-5 > 100 µM | OVCAR-8 > 100 µM | SF-295 > 100 µM

O=S(=O)(SC1=NCCN1)c1ccc2ccccc2c1
inactive: SNB-19 20.2 µM | HT-29 20 µM | NCI-H226 28.9 µM | HOP-62 23.3 µM | DU-145 32 µM | SK-MEL-28 34.8 µM | HCT-116 22.5 µM | NCI-H23 22.9 µM | EKVX 33.2 µM | OVCAR-4 52.4 µM | Malme-3M 72.6 µM | HOP-92 51.1 µM | NCI-H460 21.6 µM | CCRF-CEM 21 µM | UACC-62 30.1 µM | OVCAR-5 18.8 µM | OVCAR-8 20.7 µM | SF-295 24.8 µM

Cn1nc2ccc([N+](=O)[O-])c(Cn3nnc4ccccc43)c2n1
inactive: SNB-19 > 100 µM | HT-29 > 100 µM | NCI-H226 > 100 µM | HOP-62 > 100 µM | DU-145 > 100 µM | SK-MEL-28 > 100 µM | HCT-116 > 100 µM | NCI-H23 > 100 µM | EKVX 87.9 µM | OVCAR-4 > 100 µM | Malme-3M > 100 µM | HOP-92 > 100 µM | NCI-H460 > 100 µM | CCRF-CEM > 100 µM | UACC-62 > 100 µM | OVCAR-5 > 100 µM | OVCAR-8 > 100 µM | SF-295 > 100 µM

COc1ccc(NC(=O)/C(=N/NC(N)=S)C2C(=O)NC(=S)NC2=O)c(OC)c1
inactive: SNB-19 > 100 µM | HT-29 > 100 µM | NCI-H226 > 100 µM | DU-145 > 100 µM | SK-MEL-28 > 100 µM | HCT-116 > 100 µM | NCI-H23 > 100 µM | EKVX > 100 µM | OVCAR-4 > 100 µM | Malme-3M > 100 µM | HOP-92 > 100 µM | NCI-H460 > 100 µM | CCRF-CEM 62.2 µM | UACC-62 > 100 µM | OVCAR-5 > 100 µM | OVCAR-8 > 100 µM | SF-295 > 100 µM

O=C(Cn1c2ccc(Br)cc2c2nc3ccccc3nc21)N/N=C/c1ccccc1
inactive: SNB-19 79.3 µM | HT-29 > 100 µM | NCI-H226 > 100 µM | SR 78.2 µM | HOP-62 19.1 µM | DU-145 > 100 µM | SK-MEL-28 > 100 µM | NCI-H23 > 100 µM | EKVX > 100 µM | UACC-62 72.9 µM | OVCAR-5 > 100 µM | OVCAR-8 > 100 µM | SF-295 16.3 µM

COc1c(OC)c(O)c2c(=O)c(OC)c(-c3ccc4c(c3)OCO4)oc2c1O
inactive: SNB-19 > 100 µM | HT-29 36.1 µM | NCI-H226 > 100 µM | HOP-62 > 100 µM | DU-145 > 100 µM | SK-MEL-28 > 100 µM | HCT-116 38.6 µM | NCI-H23 > 100 µM | EKVX > 100 µM | OVCAR-4 > 100 µM | Malme-3M > 100 µM | HOP-92 1.39 µM | NCI-H460 > 100 µM | CCRF-CEM 55.5 µM | UACC-62 > 100 µM | OVCAR-5 > 100 µM | OVCAR-8 > 100 µM | SF-295 77.4 µM

Cc1ccc(Cc2cc(N3CCN(c4cccc(Cl)c4)CC3)nnc2C)cc1
inactive: SNB-19 > 100 µM | HT-29 31.6 µM | HOP-62 > 100 µM | DU-145 > 100 µM | SK-MEL-28 > 100 µM | HCT-116 22.5 µM | NCI-H23 37.7 µM | EKVX 34.4 µM | OVCAR-4 > 100 µM | NCI-H460 20.7 µM | UACC-62 > 100 µM | OVCAR-5 > 100 µM | OVCAR-8 54.8 µM | SF-295 42.9 µM

CN1c2ccccc2S(=O)(=O)n2c(COc3ccc(Cl)cc3)nnc21
inactive: SNB-19 57.4 µM | HT-29 > 100 µM | NCI-H226 92.5 µM | HOP-62 21.7 µM | DU-145 > 100 µM | SK-MEL-28 > 100 µM | HCT-116 > 100 µM | NCI-H23 > 100 µM | EKVX > 100 µM | OVCAR-4 59.3 µM | HOP-92 28 µM | NCI-H460 > 100 µM | CCRF-CEM 75.7 µM | UACC-62 56.2 µM | OVCAR-5 > 100 µM | OVCAR-8 > 100 µM | SF-295 27 µM

C[n+]1c2ccccc2c(C(=O)NC(CCCNC(=N)N)C(=O)O)c2ccccc21 (stereo not drawn)
inactive: SNB-19 > 100 µM | HT-29 > 100 µM | SR 1.31 µM | HOP-62 > 100 µM | DU-145 > 100 µM | SK-MEL-28 > 100 µM | HCT-116 > 100 µM | NCI-H23 > 100 µM | EKVX > 100 µM | OVCAR-4 > 100 µM | Malme-3M > 100 µM | NCI-H460 > 100 µM | UACC-62 > 100 µM | OVCAR-5 > 100 µM | OVCAR-8 > 100 µM | SF-295 > 100 µM
